pIC50: −log10 of the molar value.
Target: T1, Indoleamine 2,3-dioxygenase (Homo sapiens, UniProt P14902)
T1 construct: endogenous in cells; host or cells: SKOV-3 (ATCC HTB-77), stimulated with 50 ng/ml interferon gamma
Test: SKOV-3 Cellular Indoleamine 2,3-dioxygenase Assay
Conditions: SKOV-3 cells, 50 ng/ml Interferon gamma, 100 μM L-Tryptophan, 24 hours, N-Formylkynurenin fluorescence detection; read-out: cell based activity (IC50)
Protocol: SKOV-3 Cellular Indoleamine 2,3-dioxygenase Assay
SKOV-3 cells were obtained from the American Type Culture Collection (ATCC® HTB-77™) and maintained in McCoy's medium (Pan Biotech) supplemented with 10% fetal bovine serum and 1% Penicillin/Streptomycin. Cells were kept at 37° C. in a humidified incubator with 5% CO2. For assay preparation, cells were seeded at a density of 2*10^5/ml into black clear bottom 96 well plates in 100 μl medium/well supplemented with 50 ng/ml Interferon gamma (eBioscience, Thermo Fisher Scientific). After cells fully adhered to the plate, dilution series of compounds were added in medium containing additional L-Tryptophan to a final L-Tryptophan concentration of 100 μM. The cells were incubated for 24 hours. Detection of produced N-Formylkynurenin was performed by addition of 3-Methylpiperidine to a final concentration of 200 mM. The plates were sealed and heated to 65° C. for 20 minutes in a water bath. After cooling the fluorescence of each well was recorded with a Victor™X4 (PerkinElmer) plate reader at an emission wavelength of 535 nm and excitation at 405 nm (Tomek et al.; Anal Bioanal Chem (2013) 405:2515-2524, Tomek et al.; Biochim Biophys Acta. 2015 September; 1850(9):1772-80).

T1 sequence (P14902 whole entry): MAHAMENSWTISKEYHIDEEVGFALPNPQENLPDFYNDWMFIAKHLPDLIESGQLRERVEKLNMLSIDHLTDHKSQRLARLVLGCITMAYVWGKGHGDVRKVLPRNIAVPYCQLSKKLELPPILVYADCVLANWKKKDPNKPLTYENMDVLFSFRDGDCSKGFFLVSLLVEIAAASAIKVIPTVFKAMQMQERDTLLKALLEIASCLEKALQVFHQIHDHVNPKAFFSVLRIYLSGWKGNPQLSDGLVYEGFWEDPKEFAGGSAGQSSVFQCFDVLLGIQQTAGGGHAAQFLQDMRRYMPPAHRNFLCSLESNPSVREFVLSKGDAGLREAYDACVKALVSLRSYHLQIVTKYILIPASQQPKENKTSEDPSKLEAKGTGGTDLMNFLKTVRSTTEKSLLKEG

pIC50	SMILES
> 7.30	CCC(C(=O)Nc1ccc(Cl)cn1)C1CCC2(CC1)COc1cc(C(F)(F)F)ccc12 (single isomer, unassigned) [Example 10b, N-(5-chloropyridin-2-yl)-2-(6-(trifluoromethyl)-2H-spiro[benzofuran-3,1′-cyclohexan]-4′-yl)butanamide]
≤ 7.30	CC(c1nc2cc(Cl)ccc2[nH]1)C1CCC2(CC1)COc1cc(C(F)(F)F)ccc12 (single isomer, unassigned) [Example 11b, 5-Chloro-2-(1-(6-(trifluoromethyl)-2H-spiro[benzofuran-3,1′-cyclohexan]-4′-yl)ethyl)-1H-benzo[d]imidazole]
> 7.30	CC(c1nc2cc(Cl)ccc2[nH]1)C1CCC2(CC1)COc1cc(C(F)(F)F)ccc12 (single isomer, unassigned) [Example 11e, 5-Chloro-2-(1-(6-(trifluoromethyl)-2H-spiro[benzofuran-3,1′-cyclohexan]-4′-yl)ethyl)-1H-benzo[d]imidazole]
≤ 7.30	Cc1ccc(NC(=O)C(C)C2CCC3(CC2)COc2cc(C(F)(F)F)ccc23)cc1 (single isomer, unassigned) [Example 8e, N-(p-Tolyl)-2-(6-(trifluoromethyl)-2H-spiro[benzofuran-3,1′-cyclohexan]-4′-yl)propanamide]
≤ 7.30	CC(C(=O)Nc1ccc(Cl)cc1)C1CCC2(CC1)COc1ncc(C(F)(F)F)cc12 (single isomer, unassigned) [Example 4b, N-(4-chlorophenyl)-2-(5′-(trifluoromethyl)-2′H-spiro[cyclohexane-1,3′-furo[2,3-b]pyridin]-4-yl)propanamide]
≤ 7.30	CC(C(=O)Nc1ccc(Cl)cc1)C1CCC2(CC1)c1ccc(C(F)(F)F)cc1C(=O)N2C (single isomer, unassigned) [Example 6d, N-(4-Chlorophenyl)-2-(2′-methyl-3′-oxo-5′-(trifluoromethyl)spiro[cyclohexane-1,1′-isoindolin]-4-yl)propanamide]
> 7.30	CC(C(=O)Nc1ccc(Cl)cc1)C1CCC2(CC1)COc1ncc(C(F)(F)F)cc12 (single isomer, unassigned) [Example 4e, N-(4-chlorophenyl)-2-(5′-(trifluoromethyl)-2′H-spiro[cyclohexane-1,3′-furo[2,3-b]pyridin]-4-yl)propanamide]
> 7.30	CC(C(=O)Nc1ccc(Cl)cc1F)C1CCC2(CC1)COc1cc(C(F)(F)F)ccc12 (single isomer, unassigned) [Example 7d, N-(4-Chloro-2-fluorophenyl)-2-(6-(trifluoromethyl)-2H-spiro[benzofuran-3,1′-cyclohexan]-4′-yl)propanamide]
≤ 7.30	CC(C(=O)Nc1ccc(Cl)cc1)C1CCC2(CC1)c1ccc(C(F)(F)F)cc1C(=O)N2C (single isomer, unassigned) [Example 6e, N-(4-Chlorophenyl)-2-(2′-methyl-3′-oxo-5′-(trifluoromethyl)spiro[cyclohexane-1,1′-isoindolin]-4-yl)propanamide]
≤ 7.30	CC(C(=O)NC1Cc2ccc(F)cc21)C1CCC2(CC1)COc1cc(C(F)(F)F)ccc12 (single isomer, unassigned) [Example 12a]
> 7.30	CC(C(=O)Nc1ccc(Cl)cc1F)C1CCC2(CC1)COc1cc(C(F)(F)F)ccc12 (single isomer, unassigned) [Example 7c, N-(4-Chloro-2-fluorophenyl)-2-(6-(trifluoromethyl)-2H-spiro[benzofuran-3,1′-cyclohexan]-4′-yl)propanamide]
> 7.30	CCC(C(=O)Nc1ccc(Cl)cn1)C1CCC2(CC1)COc1cc(C(F)(F)F)ccc12 (single isomer, unassigned) [Example 10d, N-(5-chloropyridin-2-yl)-2-(6-(trifluoromethyl)-2H-spiro[benzofuran-3,1′-cyclohexan]-4′-yl)butanamide]
≤ 7.30	CC(C(=O)Nc1ccc(Cl)cc1)C1CCC2(CC1)COc1nc(C(F)(F)F)ccc12 (single isomer, unassigned) [Example 5d, N-(4-chlorophenyl)-2-(6′-(trifluoromethyl)-2′H-spiro[cyclohexane-1,3′-furo[2,3-b]pyridin]-4-yl)propanamide]
≤ 7.30	C[C@@H](C(=O)Nc1ccc(Cl)cc1)[C@H]1CC[C@]2(CC1)COc1cc(C(F)(F)F)ccc12 [Example 3e, (R)—N-(4-chlorophenyl)-2-((3S,4′s)-6-(trifluoromethyl)-2H-spiro[benzofuran-3,1′-cyclohexan]-4′-yl)propanamide]
> 7.30	CC(c1nc2cc(Cl)ccc2[nH]1)C1CCC2(CC1)COc1cc(C(F)(F)F)ccc12 (single isomer, unassigned) [Example 11c, 5-Chloro-2-(1-(6-(trifluoromethyl)-2H-spiro[benzofuran-3,1′-cyclohexan]-4′-yl)ethyl)-1H-benzo[d]imidazole]
> 7.30	CC(C(=O)Nc1ccc(Cl)cc1F)C1CCC2(CC1)COc1cc(C(F)(F)F)ccc12 (single isomer, unassigned) [Example 7b, N-(4-Chloro-2-fluorophenyl)-2-(6-(trifluoromethyl)-2H-spiro[benzofuran-3,1′-cyclohexan]-4′-yl)propanamide]
> 7.30	C[C@H](C(=O)Nc1ccc(Cl)cc1)[C@H]1CC[C@@]2(CC1)COc1cc(C(F)(F)F)ccc12 [Example 3b, (S)—N-(4-Chlorophenyl)-2-((3S,4′r)-6-(trifluoromethyl)-2H-spiro[benzofuran-3,1′-cyclohexan]-4′-yl)propanamide]
> 7.30	CC(C(=O)Nc1ccc(Cl)cc1)C1CCC2(CC1)COc1nc(C(F)(F)F)ccc12 (single isomer, unassigned) [Example 5e, N-(4-chlorophenyl)-2-(6′-(trifluoromethyl)-2′H-spiro[cyclohexane-1,3′-furo[2,3-b]pyridin]-4-yl)propanamide]
> 7.30	Cc1ccc(NC(=O)C(C)C2CCC3(CC2)COc2cc(C(F)(F)F)ccc23)cc1 (single isomer, unassigned) [Example 8d, N-(p-Tolyl)-2-(6-(trifluoromethyl)-2H-spiro[benzofuran-3,1′-cyclohexan]-4′-yl)propanamide]
> 7.30	CC(C(=O)Nc1ccc(Cl)cc1)[C@H]1CC[C@@]2(CCc3ccccc32)CC1 (single isomer, unassigned) [Example 2a, N-(4-chlorophenyl)-2-(2′,3′-dihydrospiro[cyclohexane-1,1′-inden]-4-yl)propanamide]
≤ 7.30	CC1CCC(NC(=O)C(C)C2CCC3(CC2)COc2cc(C(F)(F)F)ccc23)CC1 (single isomer, unassigned) [Example 9b, N-((1r,4r)-4-Methylcyclohexyl)-2-(6-(trifluoromethyl)-2H-spiro[benzofuran-3,1′-cyclohexan]-4′-yl)propanamide]
≤ 7.30	CC1CCC(NC(=O)C(C)C2CCC3(CC2)COc2cc(C(F)(F)F)ccc23)CC1 (single isomer, unassigned) [Example 9c, N-((1r,4r)-4-Methylcyclohexyl)-2-(6-(trifluoromethyl)-2H-spiro[benzofuran-3,1′-cyclohexan]-4′-yl)propanamide]
> 7.30	CC(c1nc2cc(Cl)ccc2[nH]1)C1CCC2(CC1)COc1cc(C(F)(F)F)ccc12 (single isomer, unassigned) [Example 11d, 5-Chloro-2-(1-(6-(trifluoromethyl)-2H-spiro[benzofuran-3,1′-cyclohexan]-4′-yl)ethyl)-1H-benzo[d]imidazole]
